Reference: US10226426B2, “Suspension containing nano-cocrystal and manufacturing method” (TAKEDA PHARMACEUTICAL COMPANY LIMITED, priority 2015, dated 2019)
Values after ≈ are worked out from the molar mass of the structure shown. Values belong to the compound of their own block, whether it stands above or below them.

Tests used:
[1] = value at 25° C. and 1 atm; cited from earlier work
[2] = Powder X-ray diffractometry, crystallinity by the Hermans method; format: physicochemical
Protocol: To be specific, powder samples (about 2 mg) were placed on a silicon sample plate, and scanned between 2 and 35 degrees (2θ) at a scan speed of 6 degrees/min. Powder samples such as nanoized FSD and the like were prepared by centrifuging suspensions thereof by cooling centrifugal machine Himac CR21G (manufactured by Hitachi Koki Co., Ltd.) at 19,000 rpm for 10 min and drying same. In addition, from the obtained X-ray diffraction patterns by the Hermans method, crystallinity before and after wet grinding was calculated.

crystallinity before wet grinding [2]: 85%
SMILES: NS(=O)(=O)c1cc(C(=O)O)c(NCc2ccco2)cc1Cl [Furosemide, furosemide]
diffraction pattern before and after wet grinding (dissociation of cocrystal) ([2]; wet grinding in 0.5% (w/v) HPMC and 0.02% (w/v) SDS): did not show a marked difference in the diffraction pattern before and after the wet grinding

crystallinity before wet grinding [2]: 81%
SMILES: COc1ccc2c(c1)c(CC(=O)O)c(C)n2C(=O)c1ccc(Cl)cc1 [indomethacin]
water solubility [1]: 0.0095 mg/mL (≈ 26.6 µM)

Second part, the compound before the results:

SMILES: O=C1NS(=O)(=O)c2ccccc21 [Saccharin, saccharin]
water solubility [1]: 3.4 mg/mL (≈ 18600 µM)

SMILES: NC(=O)N1c2ccccc2C=Cc2ccccc21 [anhydrous carbamazepine, carbamazepine]
water solubility [1]: 0.22 mg/mL (≈ 931 µM)
crystallinity before wet grinding [2]: 88%
formation of hydrate by wet grinding ([2]; diffraction pattern after wet grinding): formation of CBZ dihydrate could be confirmed

SMILES: NC(N)=O [urea]
water solubility [1]: 1,000 mg/mL
